Series [1] concerns CD86 surface expression on CD19+/7AAD- mouse splenocytes stimulated with IgM. Description: CD86 Inhibition Assay. It counts as cell-based. To be noted: Splenocyte; total mouse splenocytes (Balb/c), IgM stimulation 24 hr.
Description: Following the 24 hr incubation, cells are transferred to conical bottom clear 96-well plates and pelleted by centrifugation at 1200×g×5 min. […] Cells are sorted on a BD FACSCalibur and gated on the CD19^+/7AAD^− population. The levels of CD86 surface expression on the gated population is measured versus test compound concentration.
For series [2], the system named is CD69 on CD20 positive cells in human whole blood stimulated by anti-IgM. Description: CD69 Whole Blood Assay. It counts as cell-based. As to conditions: anti-human IgM stimulation, 20 hours.
Description: Human blood is obtained from healthy volunteers, with the following restrictions: 1 week drug-free, non-smokers. Blood (approximately 20 mls to test 8 compounds) is collected by venipuncture into Vacutainer® (Becton, Dickinson and Co.) tubes with sodium heparin.
Solutions of Formula I compounds at 10 mM in DMSO are diluted 1:10 in 100% DMSO, then are diluted by three-fold serial dilutions in 100% DMSO for a ten point dose-response curve. The compounds are further diluted 1:10 in PBS and then an aliquot of 5.5 μl of each compound is added in duplicate to a 2 ml 96-well plate; 5.5 μl of 10% DMSO in PBS is added as control and no-stimulus wells. Human whole blood—HWB (100 μl) is added to each well. After mixing the plates are incubated at 37° C., 5% CO2, 100% humidity for 30 minutes. Goat F(ab′)2 anti-human IgM (10 μl of a 500 μg/ml solution, 50 μg/ml final) is added to each well (except the no-stimulus wells) with mixing and the plates are incubated for an additional 20 hours. At the end of the 20 hour incubation, samples are incubated with fluorescent labeled antibodies for 30 minutes, at 37° C., 5% CO2, 100% humidity. Include induced control, unstained and single stains for compensation adjustments and initial voltage settings. Samples are then lysed with PharM Lyse™ (BD Biosciences Pharmingen) according to the manufacturer's instructions. Samples are then transferred to a 96 well plate suitable to be run on the BD Biosciences HTS 96 well system on the LSRII machine. Data acquired and Mean Fluorescence Intensity values were obtained using BD Biosciences DIVA Software. Results are initially analyzed by FACS analysis software (Flow Jo). […] The IC50 values are calculated by Prism version 5, using a nonlinear regression curve fit.
For series [3], the target named is Btk (Homo sapiens (Human), UniProt Q06187). Description: standard biochemical Btk Kinase Assay (Example 901).
Chain of Btk (Q06187 whole entry): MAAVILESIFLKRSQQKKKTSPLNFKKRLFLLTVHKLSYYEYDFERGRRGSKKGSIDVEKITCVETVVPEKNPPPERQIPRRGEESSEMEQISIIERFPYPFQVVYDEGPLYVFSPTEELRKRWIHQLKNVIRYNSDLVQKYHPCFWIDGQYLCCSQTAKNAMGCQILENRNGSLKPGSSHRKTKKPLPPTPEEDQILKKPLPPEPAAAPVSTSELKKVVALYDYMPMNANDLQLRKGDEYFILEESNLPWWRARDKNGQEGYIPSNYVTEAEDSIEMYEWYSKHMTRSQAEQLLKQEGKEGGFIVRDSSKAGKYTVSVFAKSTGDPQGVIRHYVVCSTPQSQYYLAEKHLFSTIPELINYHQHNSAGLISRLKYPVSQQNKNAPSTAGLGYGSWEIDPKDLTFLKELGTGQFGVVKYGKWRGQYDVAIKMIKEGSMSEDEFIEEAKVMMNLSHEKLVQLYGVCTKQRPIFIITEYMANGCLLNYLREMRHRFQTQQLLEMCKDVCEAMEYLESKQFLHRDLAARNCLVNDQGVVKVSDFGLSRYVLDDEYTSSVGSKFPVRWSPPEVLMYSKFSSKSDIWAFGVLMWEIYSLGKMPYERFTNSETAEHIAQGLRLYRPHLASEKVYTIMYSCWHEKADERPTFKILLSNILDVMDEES
Excerpt: Determination of IC50 values can be accomplished using conventional techniques known in the art. In general, an IC50 can be determined by measuring the activity of a given enzyme in the presence of a range of concentrations of the inhibitor under study. The experimentally obtained values of enzyme activity then are plotted against the inhibitor concentrations used. […] Analogously, other inhibitory concentrations can be defined through appropriate determinations of activity.

`CN1CCCC1c1ccc(Nc2cc(-c3cc(F)cc(N4CCc5c(sc6c5CCCC6)C4=O)c3CO)cn(C)c2=O)nc1` (stereo not shown) had a melting point of 164 to 166 °C. The compound `CN1CCCC1c1ccc(Nc2cc(-c3cc(F)cc(N4CCc5c(sc6c5CCCC6)C4=O)c3CO)cn(C)c2=O)nc1` (stereo in doubt) [Example 313, 5-[5-Fluoro-2-(hydroxymethyl)-3-(1-methyl-5-{[5-(2S)-(1-methylpyrrolidin-2-yl)pyridine-2-yl]amino}-6-oxo-1,6-dihydropyridin-3-yl)phenyl]-8-thia-5-azatricyclo[7.4.0.0^2,7]trideca-1(9),2(7)-dien-6-one] came in with an EC50 in series [1] of 6 nM. In series [2], the half-inhibitory concentration (IC50) turned out to be 44 nM. The compound `Cn1cc(-c2cccc(N3CCn4c(cc5c4CCCC5)C3=O)c2CO)cc(Nc2cc3n(n2)CCOC3)c1=O` [Example 110, 2-(3-(5-(6,7-dihydro-4H-pyrazolo[5,1-c][1,4]oxazin-2-ylamino)-1-methyl-6-oxo-1,6-dihydropyridin-3-yl)-2-(hydroxymethyl)phenyl)-3,4,6,7,8,9-hexahydropyrazino[1,2-a]indol-1(2H)-one] yielded a 50% inhibitory concentration (IC50) in series [3] (Table 1) of 7.7 nM. For the same compound, the EC50 in series [1] was 22 nM.

Regarding `CN1CCN(c2ccc(Nc3cc(-c4cccc(N5CCn6c(cc7c6CCCC7)C5=O)c4CO)cn(C)c3=O)nc2)CC1` [Example 113, 2-(2-(hydroxymethyl)-3-(1-methyl-5-(5-(4-methylpiperazin-1-yl)pyridine-2-ylamino)-6-oxo-1,6-dihydropyridin-3-yl)phenyl)-3,4,6,7,8,9-hexahydropyrazino[1,2-a]indol-1(2H)-one], the 50% inhibitory concentration (IC50) in series [3] (Table 1) is 5 nM. Besides, in series [1], the EC50 is 21 nM. `Cn1cc(-c2cccc(N3CCc4c(sc5c4CC(C)(C)C5)C3=O)c2CO)cc(Nc2cc3n(n2)CCOC3)c1=O` [Example 183] came in with a melting point of 167 to 168 °C. The compound `Cn1cc(-c2cccc(N3CCc4c(sc5c4CC(C)(C)C5)C3=O)c2CO)nc(Nc2cccnc2)c1=O` [Example 193, 5-(2-(Hydroxymethyl)-3-(6,6-dimethyl-3,4,6,7-tetrahydro-5H-cyclopenta[4,5]thieno[2,3-c]pyridine-1(2H)-yl))-1-methyl-3-(pyridin-3-ylamino)pyrazin-2(1H)-one] showed a melting point of 135 to 136 °C. Compound `CN1CCN(c2ccc(Nc3cc(-c4cc(F)cc(N5CCn6c(cc7c6CCCC7)C5=O)c4CO)cn(C)c3=O)nc2)CC1` [Example 197, 2-(5-fluoro-2-(hydroxymethyl)-3-(1-methyl-5-(5-(4-methylpiperazin-1-yl)pyridin-2-ylamino)-6-oxo-1,6-dihydropyridin-3-yl)phenyl)-3,4,6,7,8,9-hexahydropyrazino[1,2-a]indol-1(2H)-one] came in with a half-maximal effective concentration (EC50) in series [1] of 22 nM. In series [2], half-maximal inhibition (IC50) was put at 23 nM. As for `Cn1cc(-c2cccc(-n3ccc4c5c(sc4c3=O)CC(C)(C)C5)c2CO)cc(Nc2ccncn2)c1=O` [Example 203, 5-(3-(6,6-Dimethyl-5,7-dihydro-5H-cyclopenta[4,5]thieno[2,3-c]pyridine-1(2H)-yl)-2-(hydroxymethyl)phenyl)-1-methyl-3-(pyrimidin-4-ylamino)pyridin-2(1H)-one], the melting point fell in the range of 170 to 171 °C. For `CN1CCN(c2ccc(Nc3cc(-c4cc(F)cc(N5CCc6c(sc7c6CC(C)(C)C7)C5=O)c4CO)cn(C)c3=O)nc2)CC1` [Example 204], the melting point is 143 to 145 °C.

Take `Cc1cc(Nc2cc(-c3cccc(N4CCc5c(cc6n5CCCC6)C4=O)c3CO)cn(C)c2=O)n[nH]1` [Example 225, 2-(2-(Hydroxymethyl)-3-(1-methyl-5-(5-methyl-1H-pyrazol-3-ylamino)-6-oxo-1,6-dihydropyridin-3-yl)phenyl)-3,4,6,7,8,9-hexahydropyrido[3,4-b]indolizin-1(2H)-one]: the melting point was in the range of 199 to 200 °C.

For the compound `Cn1cc(-c2cccc(N3CCc4c(cc5n4CCCC5)C3=O)c2CO)cc(Nc2ccc(C3CNC3)cn2)c1=O` [Example 227, 2-(3-(5-(5-(Azetidin-3-yl)pyridin-2-ylamino)-1-methyl-6-oxo-1,6-dihydropyridin-3-yl)-2-(hydroxymethyl)phenyl)-3,4,6,7,8,9-hexahydropyrido[3,4-b]indolizin-1(2H)-one], the melting point is 227 to 229 °C. `Cn1cc(-c2cc(F)cc(N3CCc4c(sc5c4CC(C)(C)C5)C3=O)c2CO)cc(Nc2ccc(N3CCN(C4COC4)CC3)cn2)c1=O` [Example 237]: the melting point lay within 175 to 177 °C. The compound `CC(C)N1CCN(c2ccc(Nc3cc(-c4cc(F)cc(N5CCc6c(sc7c6CC(C)(C)C7)C5=O)c4CO)cn(C)c3=O)nc2)CC1` [Example 239] displayed a melting point of 191 to 192 °C. The compound `Cn1cc(-c2cc(F)cc(N3CCn4c(cc5c4CC(C)(C)C5)C3=O)c2CO)cc(Nc2ccc(N3CCN(CCF)CC3)cn2)c1=O` [Example 273, 10-{5-Fluoro-3-[5-({5-[4-(2-fluoroethyl)piperazin-1-yl]pyridine-2-yl}amino)-1-methyl-6-oxo-1,6-dihydropyridin-3-yl]-2-(hydroxymethyl)phenyl}-4,4-dimethyl-1,10-diazatricyclo[6.4.0.0^2,6]dodeca-2(6),7-dien-9-one] came in with an IC50 in series [3] (Table 2) of 6.35 nM. Also, the EC50 in series [1] was determined as 3 nM.

Compound `CN1CCN(c2ccc(Nc3cc(-c4cccc(N5CCc6c(cc7n6CCCC7)C5=O)c4CO)cn(C)c3=O)nc2)CC1` [Example 275, 2-(2-(Hydroxymethyl)-3-(1-methyl-5-(5-(4-methylpiperazin-1-yl)pyridin-2-ylamino)-6-oxo-1,6-dihydropyridin-3-yl)phenyl)-3,4,6,7,8,9-hexahydropyrido[3,4-b]indolizin-1(2H)-one] registered a melting point of 180 to 181 °C. For the same compound, half-maximal inhibition in series [3] (Table 2) (IC50) was put at 16.3 nM. `CCN1CCc2nc(Nc3cc(-c4cc(F)cc(N5CCn6c(cc7c6CC(C)(C)C7)C5=O)c4CO)cn(C)c3=O)ccc2C1` [Example 284, 10-(3-{5-[(6-Ethyl-5,6,7,8-tetrahydro-1,6-naphthyridin-2-yl)amino]-1-methyl-6-oxo-1,6-dihydropyridin-3-yl}-5-fluoro-2-(hydroxymethyl)phenyl)-4,4-dimethyl-1,10-diazatricyclo[6.4.0.0^2,6]dodeca-2(6),7-dien-9-one] displayed an IC50 in series [3] (Table 2) of 2.8 nM. The same compound registered a half-maximal effective concentration (EC50) in series [1] of 6 nM. As for `CCN1CCn2nc(Nc3cc(-c4cc(F)cc(N5CCn6c(cc7c6CC(C)(C)C7)C5=O)c4CO)cn(C)c3=O)cc2C1` [Example 285, 10-{3-[5-({5-Ethyl-4H,5H,6H,7H-pyrazolo[1,5-a]pyrazin-2-yl}amino)-1-methyl-6-oxo-1,6-dihydropyridin-3-yl]-5-fluoro-2-(hydroxymethyl)phenyl}-4,4-dimethyl-1,10-diazatricyclo[6.4.0.0^2,6]dodeca-2(6),7-dien-9-one], the half-maximal inhibitory concentration (IC50) in series [3] (Table 2) turned out to be 3.6 nM. In addition, the 50% effective concentration (EC50) in series [1] came to 11 nM. Compound `CN(C)CCN(C)c1ccc(Nc2cc(-c3cc(F)cc(N4CCc5c(sc6c5CCCC6)C4=O)c3CO)cn(C)c2=O)nc1` [Example 286, 2-(3-(5-(5-((2-(Dimethylamino)ethyl)(methyl)amino)pyridin-2-ylamino)-1-methyl-6-oxo-1,6-dihydropyridin-3-yl)-5-fluoro-2-(hydroxymethyl)phenyl)-3,4,5,6,7,8-hexahydrobenzothieno[2,3-c]pyridin-1(2H)-one] showed a melting point of 122 to 123 °C. Also, it took 4 nM to reach a half-maximal effect in series [1] (EC50). In series [2], `CN(Cc1cc(Nc2cc(-c3cc(F)cc(N4CCc5c(sc6c5CCCC6)C4=O)c3CO)cn(C)c2=O)nn1C)C1COC1` [Example 324, 5-[5-Fluoro-2-(hydroxymethyl)-3-{1-methyl-5-[(1-methyl-5-{[methyl(oxetan-3-yl)amino]methyl}-1H-pyrazol-3-yl)amino]-6-oxo-1,6-dihydropyridin-3-yl}phenyl]-8-thia-5-azatricyclo[7.4.0.0^2,7]trideca-1(9),2(7)-dien-6-one] yielded an IC50 of 53 nM. `CN1CCC(c2ccc(Nc3cc(-c4cccc(N5CCc6c(sc7c6CC(C)(C)C7)C5=O)c4CO)cn(C)c3=O)nc2)CC1` [Example 325, 10-[2-(Hydroxymethyl)-3-(1-methyl-5-{[5-(1-methylpiperidin-4-yl)pyridine-2-yl]amino}-6-oxopyridin-3-yl)phenyl]-4,4-dimethyl-7-thia-10-azatricyclo[6.4.0.0^2,6]dodeca-1(8),2(6)-dien-9-one] registered an IC50 in series [2] of 24 nM.

As for `COCc1c(-c2cc(Nc3ccc(N4CCN(C)CC4)cn3)c(=O)n(C)c2)cc(F)cc1N1CCn2c(cc3c2CCCC3)C1=O` [Example 343, 2-{5-fluoro-2-(methoxymethyl)-3-(1-methyl-5-(5-(4-methylpiperazin-1-yl)pyridin-2-ylamino)-6-oxo-1,6-dihydropyridin-3-yl)phenyl)-3,4,6,7,8,9-hexahydropyrazino[1,2-a]indol-1(2H)-one], in series [2], the IC50 came out at 53 nM. The same measure, in the same setting: the result for `CN1CCN(c2ccc(Nc3cc(-c4cc(F)cc(N5CCn6c(cc7c6CCCC7)C5=O)c4CO)cn(C)c3=O)nc2)C(=O)C1` [Example 345, 2-(5-fluoro-2-(hydroxymethyl)-3-(1-methyl-5-(5-(4-methyl-2-oxopiperazin-1-yl)pyridin-2-ylamino)-6-oxo-1,6-dihydropyridin-3-yl)phenyl)-3,4,6,7,8,9-hexahydropyrazino[1,2-a]indol-1(2H)-one] reads 24 nM.

What is called melting point is the temperature of the solid-liquid transition. Usually EC50 stands for the concentration needed to bring the measured effect to its halfway point. High values mean a need for much substance, low ones an effect from little substance. Broadly, the IC50 is the concentration that inhibits the measured activity by half. A lower IC50 goes with higher potency.

Source of the values: patent US8618107B2 (Gilead Connecticut, Inc., priority 2010, dated 2013).
